Among the test systems are A498 renal; EKVX NSCLC; HOP-92 NSCLC; IGROV1 ovarian; M14 melanoma; MDA-MB-435; MOLT-4 leukemia; NCI-H23 lung; OVCAR-5 ovarian; OVCAR-8 ovarian; SK-MEL-28 melanoma; SK-OV-3 ovarian; SNB-75 CNS; TK-10 renal; UACC-62 melanoma; CAKI-1 renal; HCC-2998 colon; SF-539 CNS; BT-549 breast.
Holding throughout (experiment): NCI anticancer screen, dose series, 48 h

The structures appear in SMILES notation.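 Test compounds were applied to cells in 96-well plates for 48 hours at 5 doses. TGI is the concentration that stops growth completely.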

Take `CCSC1=N/C(=C\c2ccco2)C(Nc2ccc(C)cc2)=N1`: the TGI with A498 renal, in the assay on EKVX NSCLC, in the assay on HOP-92 NSCLC, in the assay with IGROV1 ovarian, in the assay with M14 melanoma and in the assay with MDA-MB-435 was more than 100 µM in each case. Also, the TGI in the assay with MOLT-4 leukemia, with NCI-H23 lung, with OVCAR-5 ovarian, in the assay on OVCAR-8 ovarian, with SK-MEL-28 melanoma and with SK-OV-3 ovarian was more than 100 µM each time. The TGI in the assay with SNB-75 CNS, in the assay with TK-10 renal and in the assay with UACC-62 melanoma was more than 100 µM in each case.
Turning to `O=C1C2CCCC2N1Cc1ccccc1` (configuration not stated), the TGI with A498 renal, with CAKI-1 renal, in the assay on EKVX NSCLC, in the assay with HCC-2998 colon, in the assay with HOP-92 NSCLC and with IGROV1 ovarian was more than 100 µM each time. Further, the TGI is 26.9 µM in the assay on M14 melanoma; more than 100 µM in the assay on MDA-MB-435; more than 100 µM in the assay with MOLT-4 leukemia; more than 100 µM in the assay on NCI-H23 lung; more than 100 µM with OVCAR-5 ovarian; more than 100 µM with OVCAR-8 ovarian. The TGI in the assay on SF-539 CNS, with SK-OV-3 ovarian, with SNB-75 CNS, in the assay on TK-10 renal and in the assay with UACC-62 melanoma was more than 100 µM each time.
Turning to `Nc1ccc2nc3n(c2c1)C(c1c(F)cccc1F)SC3` (configuration not stated), the TGI in the assay with A498 renal, in the assay with BT-549 breast, in the assay with CAKI-1 renal, with EKVX NSCLC, with HCC-2998 colon and with IGROV1 ovarian was more than 100 µM in each case. The TGI with M14 melanoma, with MDA-MB-435, in the assay with MOLT-4 leukemia, in the assay with NCI-H23 lung, in the assay on OVCAR-5 ovarian and in the assay with OVCAR-8 ovarian was more than 100 µM throughout. The TGI in the assay on SF-539 CNS, in the assay on SK-MEL-28 melanoma, in the assay with SK-OV-3 ovarian, in the assay with SNB-75 CNS, in the assay on TK-10 renal and in the assay with UACC-62 melanoma was more than 100 µM in each case.
`O=c1c2ccccc2ncn1COCc1ccccc1`: the TGI in the assay on A498 renal, with EKVX NSCLC, with HCC-2998 colon, with HOP-92 NSCLC, in the assay on IGROV1 ovarian and with M14 melanoma was more than 100 µM throughout. The TGI in the assay with MDA-MB-435, in the assay with MOLT-4 leukemia, in the assay on OVCAR-5 ovarian, in the assay with OVCAR-8 ovarian, with SF-539 CNS and in the assay with SK-MEL-28 melanoma was more than 100 µM in each case. Besides, the TGI in the assay with SK-OV-3 ovarian, with TK-10 renal and in the assay with UACC-62 melanoma was more than 100 µM each time.
`Nc1nncc2n[nH]nc12`: the TGI with A498 renal, in the assay with BT-549 breast, in the assay on CAKI-1 renal, with EKVX NSCLC, with IGROV1 ovarian and with M14 melanoma was more than 100 µM in each case. The TGI was more than 100 µM in the assay on MDA-MB-435; 91 µM in the assay with MOLT-4 leukemia; more than 100 µM with NCI-H23 lung; more than 100 µM with OVCAR-5 ovarian; more than 100 µM in the assay with OVCAR-8 ovarian; more than 100 µM in the assay with SF-539 CNS. For the same compound, the TGI in the assay on SK-MEL-28 melanoma, in the assay on SNB-75 CNS, in the assay with TK-10 renal and in the assay with UACC-62 melanoma was more than 100 µM each time.
In the case of `C[C@H](CCC(=O)O)[C@H]1CC[C@H]2[C@@H]3[C@@H](O)C[C@@H]4C[C@H](O)CC[C@]4(C)[C@H]3C[C@H](O)[C@]12C`, the TGI in the assay with A498 renal, in the assay with CAKI-1 renal, in the assay with EKVX NSCLC, with HCC-2998 colon, in the assay on HOP-92 NSCLC and in the assay with IGROV1 ovarian was more than 100 µM in each case. The TGI in the assay on M14 melanoma, in the assay on MDA-MB-435, in the assay with MOLT-4 leukemia, with NCI-H23 lung, in the assay with OVCAR-5 ovarian and in the assay on OVCAR-8 ovarian was more than 100 µM throughout. Also, the TGI in the assay with SF-539 CNS, with SK-MEL-28 melanoma, in the assay with SNB-75 CNS, in the assay with TK-10 renal and in the assay on UACC-62 melanoma was more than 100 µM throughout.
For `Cc1cc2c3c(nc2c2cc[nH]c(C)c12)CCCC3`, the TGI was 8.44 µM in the assay with EKVX NSCLC; 3.43 µM in the assay on HCC-2998 colon; 7.3 µM with HOP-92 NSCLC; 5.4 µM with IGROV1 ovarian; 3.63 µM in the assay on M14 melanoma; 3.63 µM in the assay with MDA-MB-435. Moreover, the TGI is 4.32 µM in the assay with MOLT-4 leukemia; 10.4 µM in the assay on NCI-H23 lung; 13.6 µM in the assay on OVCAR-5 ovarian; 4.96 µM in the assay on OVCAR-8 ovarian; 3.72 µM in the assay on SF-539 CNS; 3.57 µM with SK-MEL-28 melanoma. For the same compound, the TGI was determined as 3.7 µM in the assay on SK-OV-3 ovarian, 4.02 µM with SNB-75 CNS, 4.64 µM in the assay on TK-10 renal and 3.32 µM in the assay with UACC-62 melanoma.
For the compound `Cc1ccc(F)c2[nH]c(-c3ccccc3)cc(=O)c12`, the TGI with A498 renal, in the assay with BT-549 breast, in the assay with CAKI-1 renal, in the assay with EKVX NSCLC, with HCC-2998 colon and in the assay with IGROV1 ovarian was more than 100 µM throughout. The TGI in the assay with M14 melanoma is more than 100 µM; with MDA-MB-435, more than 100 µM; in the assay on MOLT-4 leukemia, more than 100 µM; with NCI-H23 lung, more than 65.8 µM; in the assay on OVCAR-5 ovarian, more than 31.3 µM; in the assay with OVCAR-8 ovarian it was more than 100 µM. For the same compound, the TGI in the assay on SF-539 CNS is 28.5 µM; with SK-MEL-28 melanoma, more than 40.1 µM; in the assay with SK-OV-3 ovarian, more than 100 µM; in the assay on SNB-75 CNS it was more than 30.6 µM; with TK-10 renal, more than 100 µM; in the assay with UACC-62 melanoma it was more than 100 µM.

The values are drawn from PubChem BioAssay (NCI).
